One assay deals with U937 cells. Nature of the assay: U937 Cell TNFα Release Assay. The format is cell-based, human. The following applies: Homo sapiens, mixture of stereoisomers implied unless otherwise noted.
The next assay deals with MK-2 (Homo sapiens, UniProt P49137). Kind of assay: Determination of MK-2 IC50 (phosphorylation of HSP-peptide, anion exchange resin capture assay). Conditions: additional values are replicate IC50 experiments; mixture of stereoisomers implied unless otherwise noted; read-out: MK-2 Avg. IC50. The class given is biochemical.
Sequence of MK-2 (P49137 whole entry, species assumed): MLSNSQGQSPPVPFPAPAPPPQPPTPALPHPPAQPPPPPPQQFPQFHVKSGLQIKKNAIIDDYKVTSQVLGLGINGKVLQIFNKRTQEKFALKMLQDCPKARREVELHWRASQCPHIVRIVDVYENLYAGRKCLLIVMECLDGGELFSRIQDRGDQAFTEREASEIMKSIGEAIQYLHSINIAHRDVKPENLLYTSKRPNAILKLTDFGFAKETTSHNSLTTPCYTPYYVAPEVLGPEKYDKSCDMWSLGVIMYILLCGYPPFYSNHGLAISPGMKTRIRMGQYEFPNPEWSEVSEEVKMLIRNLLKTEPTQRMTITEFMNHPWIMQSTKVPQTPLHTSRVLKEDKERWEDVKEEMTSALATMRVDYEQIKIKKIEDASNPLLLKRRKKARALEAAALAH
[1] abbreviates: U-937, 4 h, LPS-stimulated differentiated U937 cells, TNFα by ELISA, read-out: TNF Release Assay Avg. IC50.
[2] abbreviates: U-937, LPS-stimulated differentiated U937 cells, TNFα by ELISA, read-out: TNF Release Assay Avg. IC50.
Where [3] appears, read: U-937, read-out: TNF Release Assay Avg. IC50, LPS-stimulated differentiated U937 cells, TNFα by ELISA.

Where a name gives a salt, the structure may show the parent alone. Read-outs that look alike come from different tables or passages of the source.

The IC50 is the point on the concentration scale where inhibition reaches its midpoint. In the case of `COc1ccc2[nH]c3c(c2c1)CCCNC3=O` [Example 30, 7-methoxy-3,4,5,10-tetrahydroazepino[3,4-b]indol-1(2H)-one hydrochloride], the IC50 with U937 cells (setting [1]) worked out at 2.66 µM; on MK-2, 3.6 µM.

Turning to `CCOC(=O)COc1ccc2[nH]c3c(c2c1)CCNC3C(=O)O` (stereo not drawn) [Example 53, 6-(2-ethoxy-2-oxoethoxy)-2,3,4,9-tetrahydro-1H-beta-carboline-1-carboxylic acid trifluoroacetate hydrate], the IC50 is above 100 µM in the assay on U937 cells (setting [1]) and 8 µM at MK-2.

For the compound `O/N=C1\CCCc2c1[nH]c1ccc(I)cc21` [Example 77, 6-iodo-2,3,4,9-tetrahydro-1H-carbazol-1-one oxime], the IC50 with U937 cells (setting [2]) worked out at 23.2 µM; at MK-2, 17 µM.

As to `COC(=O)C(Oc1ccc2[nH]c3c(c2c1)CCNC3C(=O)O)c1ccccc1` (stereo not drawn) [Example 57, 6-(2-methoxy-2-oxo-1-phenylethoxy)-2,3,4,9-tetrahydro-1H-beta-carboline-1-carboxylic acid], the IC50 in the assay with U937 cells (setting [1]) came to 97.3 µM; at MK-2, 9.45 µM.

Consider `COc1ccc2[nH]c3c(c2c1)CCNC3c1nnn[nH]1` (stereo not drawn) [Example 143, 6-methoxy-1-(1H-tetraazol-5-yl)-2,3,4,9-tetrahydro-1H-beta-carboline trifluoroacetate hydrate], for which the figures for the half-maximal inhibitory concentration (IC50) in the assay with U937 cells (setting [1]) and on MK-2 were at least 100 µM and 127 µM, respectively.

Turning to `COc1ccc2[nH]c3c(=O)n(N)c(=O)[nH]c3c2c1` [Example 266, 3-amino-8-methoxy-1H-pyrimido[5,4-b]indole-2,4(3H,5H)-dione], the IC50 in the assay with U937 cells (setting [2]) was above 100 µM; on MK-2, above 200 µM.

As to `CCn1c2c(c3cc(OC)ccc31)CCNC2C(=O)OC` (stereo not drawn) [Example 208, methyl 9-ethyl-6-methoxy-2,3,4,9-tetrahydro-1H-beta-carboline-1-carboxylate trifluoroacetate], the IC50 in the assay on U937 cells (setting [1]) was 100 µM; at MK-2 it was above 200 µM.

Take `COC(=O)C1c2[nH]c3ccc(OCc4ccccc4)cc3c2CCN1C` (stereo not drawn) [Example 176, methyl 6-(benzyloxy)-2-methyl-2,3,4,9-tetrahydro-1H-beta-carboline-1-carboxylate]: the IC50 was 36.4 µM with U937 cells (U-937, 4 h, read-out: TNF Release Assay Avg. IC50, LPS-stimulated differentiated U937 cells, TNFα by ELISA) and above 200 µM on MK-2.

With `COc1ccc2[nH]c3c(c2c1)CCC/C3=N\O` [Example 19, (1E)-6-methoxy-2,3,4,9-tetrahydro-1H-carbazol-1-one oxime], the IC50 in the assay on U937 cells (setting [2]) worked out at 1.89 µM; at MK-2, 2.1 µM.

Consider `COC(=O)C1NCCc2c1n(C)c1ccc(OC)cc21` (stereo not drawn) [Example 209, methyl 6-methoxy-9-methyl-2,3,4,9-tetrahydro-1H-beta-carboline-1-carboxylate trifluoroacetate], for which the IC50 with U937 cells (setting [1]) is 88.9 µM; at MK-2, above 200 µM.

For the compound `O=C(O)C1c2[nH]c3ccccc3c2CCN1C(=O)c1ccc(Cl)cc1` (stereo not drawn) [Example 202, 2-(4-chlorobenzeyl)-2,3,4,9-tetrahydro-1H-beta-carboline-1-carboxylic acid], the values for the IC50 in the assay with U937 cells (setting [1]) and at MK-2 were above 100 µM and above 200 µM, respectively.

Take `C=CCOC(=O)C1c2[nH]c3ccc(OC)cc3c2C2CCN1C2` (stereo not shown) [Example 28, allyl 7-methoxy-3,4,5,10-tetrahydro-1H-2,5-methanoazepino[3,4-b]indole-1-carboxylate hydrochloride]: the IC50 in the assay on U937 cells (setting [3]) stood at 14.5 µM.

With `O=C(OCc1ccccc1)C1c2[nH]c3ccc(O)cc3c2C2CCN1C2` (stereo not shown) [Example 63, benzyl 7-hydroxy-3,4,5,10-tetrahydro-1H-2,5-methanoazepino[3,4-b]indole-1-carboxylate hydrochloride], the IC50 in the assay with U937 cells (setting [2]) stood at 35.9 µM.

Regarding `COc1ccc2[nH]c3c(c2c1)C1CCN(C1)C3C(=O)OC(C)C` (stereo not shown) [Example 59, isopropyl 7-methoxy-3,4,5,10-tetrahydro-1H-2,5-methanoazepino[3,4-b]indole-1-carboxylate hydrochloride], in the assay on U937 cells (setting [3]), the half-inhibitory concentration (IC50) is above 100 µM.
